The conditions of this data set: for aqueous solubility: pH 6.8.

In brackets after ≈: the same amount, converted by molar mass. Bounds are passed on as bounds.

With `O=S1(=O)CCN(C2CCN(CC(F)(F)F)CC2)CC1`, the MDR1-MDCK efflux ratio came to 0.765; the intrinsic clearance, human liver microsomes was not above 4.74 mL/min/kg; the intrinsic clearance, rat liver microsomes was found to be 20.1 mL/min/kg.
Regarding `Cc1ccc(NC(=O)CN2[C@H](Cc3ccccc3)C[C@]3(C)NC(=O)CCC[C@H]23)cc1F`, the MDR1-MDCK efflux ratio was found to be 12.4; the fraction unbound, human plasma is 0.00729; the fraction unbound, rat plasma was determined as 0.023; the intrinsic clearance, human liver microsomes amounted to 499 mL/min/kg. The intrinsic clearance, rat liver microsomes worked out at 3320 mL/min/kg.
`O=C(NCc1cccs1)c1cccnc1`: the MDR1-MDCK efflux ratio amounted to 0.62; the intrinsic clearance, human liver microsomes was not above 4.74 mL/min/kg; the intrinsic clearance, rat liver microsomes was not above 10.7 mL/min/kg.
Consider `COc1ccc(Cl)cc1N(CC(=O)Nc1ccccc1C(=O)NCc1ccccc1)S(C)(=O)=O`, for which the intrinsic clearance, human liver microsomes amounted to 594 mL/min/kg and the intrinsic clearance, rat liver microsomes turned out to be 1370 mL/min/kg.
The term aqueous solubility denotes the concentration that dissolves in the medium under given conditions. In the case of `CC(=O)N1CCC(Nc2ncnc3cc(-c4ccc(Br)cc4)sc23)CC1`, the MDR1-MDCK efflux ratio amounted to 5.91; the intrinsic clearance, human liver microsomes was 6.41 mL/min/kg; the intrinsic clearance, rat liver microsomes is 43.2 mL/min/kg; the aqueous solubility is 10.2 µg/mL (≈ 23.6 µM).
As for `CCCn1cc(NC(=O)Nc2ccc(N3CCSCC3)cc2)cn1`, the MDR1-MDCK efflux ratio was determined as 7.18; the intrinsic clearance, human liver microsomes was 44.4 mL/min/kg; the intrinsic clearance, rat liver microsomes amounted to 808 mL/min/kg.
`N#Cc1nc(-c2ccccc2)oc1NCc1ccc2c(c1)OCO2`: the intrinsic clearance, human liver microsomes stood at 208 mL/min/kg and the intrinsic clearance, rat liver microsomes was determined as 707 mL/min/kg.
As for `Cc1nn(C)c2ncc(CNc3ccon3)cc12`, the MDR1-MDCK efflux ratio came out at 0.858; the intrinsic clearance, human liver microsomes was not above 4.74 mL/min/kg; the intrinsic clearance, rat liver microsomes is 14.2 mL/min/kg.
For `CNC(=O)Cc1csc(-c2ccc(C)cc2)n1`, the MDR1-MDCK efflux ratio is 0.708; the intrinsic clearance, human liver microsomes was determined as 108 mL/min/kg; the intrinsic clearance, rat liver microsomes came out at 1010 mL/min/kg; the aqueous solubility was determined as 4.06 µg/mL (≈ 16.5 µM).
As to `C[C@@H](/C=C\C(F)(F)F)Oc1cc(-c2cc(-c3cc(CN(C)C)cs3)cnc2N)ccc1C(N)=O`, the MDR1-MDCK efflux ratio is 32.7; the intrinsic clearance, human liver microsomes worked out at 20.5 mL/min/kg; the intrinsic clearance, rat liver microsomes was found to be 157 mL/min/kg; the aqueous solubility turned out to be 21.2 µg/mL (≈ 43.2 µM).
Regarding `O=C(NCCNc1ncccc1C(F)(F)F)c1cnc2ccccn2c1=O`, the MDR1-MDCK efflux ratio stood at 1.09; the intrinsic clearance, human liver microsomes was 27.8 mL/min/kg; the intrinsic clearance, rat liver microsomes was found to be 585 mL/min/kg; the aqueous solubility amounted to 66.6 µg/mL (≈ 177 µM).
Take `Cc1ccc(-n2cc[nH]c(=O)c2=O)cc1`: the MDR1-MDCK efflux ratio was determined as 1.05; the intrinsic clearance, human liver microsomes is not above 4.74 mL/min/kg; the intrinsic clearance, rat liver microsomes is not above 10.7 mL/min/kg; the aqueous solubility is 42.9 µg/mL (≈ 212 µM).
Take `Cc1ccccc1-n1c(CC2CCN(C(=O)C3CC3)CC2)n[nH]c1=O`: the MDR1-MDCK efflux ratio is 117; the intrinsic clearance, human liver microsomes is not above 4.74 mL/min/kg; the intrinsic clearance, rat liver microsomes worked out at 26.8 mL/min/kg; the aqueous solubility turned out to be 48 µg/mL (≈ 141 µM).
As for `c1nn(C2CCOCC2)cc1Nc1ncc2nnn(-c3ccc4cn[nH]c4c3)c2n1`, the MDR1-MDCK efflux ratio was 531; the intrinsic clearance, human liver microsomes worked out at 96.8 mL/min/kg; the intrinsic clearance, rat liver microsomes was found to be 765 mL/min/kg.
On to `CCc1ccc(-c2nccn2Cc2c(C)nn(CC)c2C)o1`, for which the MDR1-MDCK efflux ratio worked out at 3.28; the intrinsic clearance, human liver microsomes came to 246 mL/min/kg; the intrinsic clearance, rat liver microsomes was 3020 mL/min/kg; the aqueous solubility was 40.5 µg/mL (≈ 136 µM).
Take `N=C(N)NCCCCC(=O)Nc1ccc(C[C@H](NC(=O)[C@@H]2CCCN2S(=O)(=O)c2ccccc2)C(=O)O)cc1`: the intrinsic clearance, human liver microsomes is not above 4.74 mL/min/kg and the intrinsic clearance, rat liver microsomes was not above 10.7 mL/min/kg.
On to `COCCNC(=O)c1ccnc(C2CCNCC2)c1`, for which the fraction unbound, human plasma was found to be 1; the fraction unbound, rat plasma is 1; the intrinsic clearance, human liver microsomes is not above 4.74 mL/min/kg; the intrinsic clearance, rat liver microsomes amounted to 16.1 mL/min/kg.
In the case of `Cc1ccc(C(=O)Nc2cccc(C(=O)N(C)C)c2)cn1`, the MDR1-MDCK efflux ratio worked out at 23.2; the intrinsic clearance, human liver microsomes is not above 4.74 mL/min/kg; the intrinsic clearance, rat liver microsomes was not above 10.7 mL/min/kg; the aqueous solubility came to 45.3 µg/mL (≈ 160 µM).
On to `c1sc(NCC2CCCO2)nc1C12CC3CC(CC(C3)C1)C2` (configuration not stated), for which the MDR1-MDCK efflux ratio turned out to be 0.537; the fraction unbound, human plasma came out at 0.0008; the intrinsic clearance, human liver microsomes was determined as 45.7 mL/min/kg.
In the case of `CCOc1cc(CC(=O)N[C@@H](CC(C)C)c2ccccc2N2CCCCC2)ccc1C(=O)O`, the MDR1-MDCK efflux ratio was 28.7; the fraction unbound, human plasma turned out to be 0.0128; the fraction unbound, rat plasma was found to be 0.00864; the intrinsic clearance, human liver microsomes was determined as 38.2 mL/min/kg. The compound also registered an intrinsic clearance, rat liver microsomes of 218 mL/min/kg.
Regarding `CSCc1noc(COc2ccc(F)cc2F)n1`, the aqueous solubility was found to be 17.3 µg/mL (≈ 63.5 µM).
As for `Cc1csc(Nc2ccc(C#N)cc2)n1`, the MDR1-MDCK efflux ratio stood at 0.419; the intrinsic clearance, human liver microsomes turned out to be 201 mL/min/kg; the intrinsic clearance, rat liver microsomes worked out at 620 mL/min/kg; the aqueous solubility was 38.2 µg/mL (≈ 177 µM).
For the compound `CC(C)(C)c1cc(NC(=O)c2cccc3cn[nH]c23)[nH]n1`, the MDR1-MDCK efflux ratio turned out to be 1.55; the intrinsic clearance, human liver microsomes stood at 9.85 mL/min/kg; the intrinsic clearance, rat liver microsomes came out at 176 mL/min/kg; the aqueous solubility worked out at 1.78 µg/mL (≈ 6.28 µM).
Take `Nc1nc2ccccc2n1CCCc1ccccc1`: the MDR1-MDCK efflux ratio came out at 0.966; the intrinsic clearance, human liver microsomes turned out to be 13.4 mL/min/kg; the intrinsic clearance, rat liver microsomes is 463 mL/min/kg; the aqueous solubility came out at 27.2 µg/mL (≈ 108 µM).
`Cn1cc(-c2cccc3c(C(N)=O)cccc23)cn1`: the MDR1-MDCK efflux ratio stood at 1.17; the intrinsic clearance, human liver microsomes was not above 4.74 mL/min/kg; the intrinsic clearance, rat liver microsomes stood at 42.6 mL/min/kg.
On to `CN(C)CCN(Cc1ccccc1)Cc1ccccc1O`, for which the MDR1-MDCK efflux ratio amounted to 0.84; the intrinsic clearance, human liver microsomes is 330 mL/min/kg; the intrinsic clearance, rat liver microsomes is 1380 mL/min/kg; the aqueous solubility turned out to be 41.9 µg/mL (≈ 147 µM).
For the compound `CN(C)C(=O)c1cncc(N(C)CCN(C)C2CCCC2)n1`, the MDR1-MDCK efflux ratio was 20.2; the intrinsic clearance, human liver microsomes came out at 6.5 mL/min/kg; the intrinsic clearance, rat liver microsomes came out at 32.3 mL/min/kg.
On to `Cc1sc2ncnc(OCC(=O)Nc3ccc4c(c3)OCO4)c2c1C`, for which the MDR1-MDCK efflux ratio is 0.986 and the aqueous solubility was determined as 0.26 µg/mL (≈ 0.727 µM).
Take `CN(Cc1ccccc1)C1(C(=O)N2CCNC(=O)CC2)Cc2ccccc2C1`: the MDR1-MDCK efflux ratio stood at 8.66; the fraction unbound, human plasma amounted to 0.0803; the fraction unbound, rat plasma is 0.0818; the intrinsic clearance, human liver microsomes was found to be 113 mL/min/kg. In addition, the intrinsic clearance, rat liver microsomes came to 2760 mL/min/kg.
On to `Cc1oc2ncnc(NCc3cc(F)cc4c3OCOC4)c2c1C`, for which the MDR1-MDCK efflux ratio stood at 0.553; the intrinsic clearance, human liver microsomes came out at 127 mL/min/kg; the intrinsic clearance, rat liver microsomes turned out to be 2040 mL/min/kg.
`CCOc1cc(CNc2ccc(N3CCOCC3)c(C(=O)O)c2)cc(Cl)c1OC` registered an intrinsic clearance, human liver microsomes of 21.1 mL/min/kg; an intrinsic clearance, rat liver microsomes of 154 mL/min/kg; an aqueous solubility of 22.7 µg/mL (≈ 54 µM).
For `Cc1cc(OCc2ncc(C(C)(C)C)o2)nn1C`, the MDR1-MDCK efflux ratio was 0.716; the intrinsic clearance, human liver microsomes is 27.8 mL/min/kg; the intrinsic clearance, rat liver microsomes came to 655 mL/min/kg; the aqueous solubility came to 18.5 µg/mL (≈ 74.2 µM).
As for `COc1ccc(CN2CCN(C(=O)C3CCN(C(=O)C4CC4)CC3)CC2)cc1`, the MDR1-MDCK efflux ratio turned out to be 7.58; the intrinsic clearance, human liver microsomes was not above 4.74 mL/min/kg; the intrinsic clearance, rat liver microsomes worked out at 50.4 mL/min/kg.
For `CCNc1nc(-c2cccnc2)nc(C)c1C`, the MDR1-MDCK efflux ratio was 0.577; the intrinsic clearance, human liver microsomes stood at 49.7 mL/min/kg; the intrinsic clearance, rat liver microsomes is 69.8 mL/min/kg.
In the case of `Cc1cnc(NC(=O)Cc2coc3cc(C)c(C)cc23)s1`, the aqueous solubility stood at 0.32 µg/mL (≈ 1.07 µM).
As to `COc1ccc(-c2cccc(C3CCCN(C(=O)C4CCCC4)C3)n2)cc1` (configuration not stated), the MDR1-MDCK efflux ratio stood at 0.717; the intrinsic clearance, human liver microsomes is 175 mL/min/kg; the intrinsic clearance, rat liver microsomes turned out to be 1980 mL/min/kg; the aqueous solubility was determined as 2.45 µg/mL (≈ 6.72 µM).
For `COCCc1nc(CCCn2cccn2)n(C2Cc3ccccc3C2)n1`, the MDR1-MDCK efflux ratio came out at 9.86; the intrinsic clearance, human liver microsomes stood at 25.1 mL/min/kg; the intrinsic clearance, rat liver microsomes came to 550 mL/min/kg; the aqueous solubility stood at 21.4 µg/mL (≈ 60.9 µM).
`N=c1ccn2c(n1)O[C@@H]1[C@@H](O)[C@@H](CO)O[C@H]12` returned an intrinsic clearance, human liver microsomes not above 4.74 mL/min/kg and an intrinsic clearance, rat liver microsomes not above 10.7 mL/min/kg.
Turning to `CCCCC1=NC2(CCCC2)C(=O)N1Cc1ccc(-c2ccccc2-c2nnn[nH]2)cc1`, the MDR1-MDCK efflux ratio was found to be 75.6; the intrinsic clearance, human liver microsomes worked out at 9.16 mL/min/kg; the intrinsic clearance, rat liver microsomes amounted to 108 mL/min/kg; the aqueous solubility turned out to be 29.5 µg/mL (≈ 68.7 µM).
In the case of `Cc1cn2c3c(=O)n(Cc4ccccc4Cl)c(=O)n(C)c3nc2n1-c1ccccc1O`, the MDR1-MDCK efflux ratio was found to be 12.8 and the aqueous solubility came to 0.19 µg/mL (≈ 0.436 µM).
For `CN(c1ccc(NC(=O)Nc2ccc(OC(F)(F)F)cc2)cc1)c1ccnc(Nc2cccc(S(N)(=O)=O)c2)n1`, the MDR1-MDCK efflux ratio was 8.5; the intrinsic clearance, human liver microsomes was not above 4.74 mL/min/kg; the intrinsic clearance, rat liver microsomes is not above 10.7 mL/min/kg; the aqueous solubility is 1.95 µg/mL (≈ 3.4 µM).
For `O=C(c1cn(Cc2cncn2Cc2ccc(Br)cc2)cc1-c1cccc2ccccc12)N1CCOCC1`, the MDR1-MDCK efflux ratio was 22.8; the intrinsic clearance, human liver microsomes is 150 mL/min/kg; the intrinsic clearance, rat liver microsomes is 2010 mL/min/kg.
For the compound `Nc1nc2c(N)ncnc2[nH]1`, the aqueous solubility was 17.8 µg/mL (≈ 119 µM).
Turning to `CN1CCC(CNC(=O)c2ncoc2-c2ccc(F)cc2)CC1`, the MDR1-MDCK efflux ratio stood at 1.76; the intrinsic clearance, human liver microsomes was not above 4.74 mL/min/kg; the intrinsic clearance, rat liver microsomes turned out to be 50.1 mL/min/kg.
Consider `O=C(NCc1cc(F)cc(F)c1)c1ccccn1`, for which the MDR1-MDCK efflux ratio is 0.719; the intrinsic clearance, human liver microsomes was not above 4.74 mL/min/kg; the intrinsic clearance, rat liver microsomes was 51.6 mL/min/kg; the aqueous solubility was determined as 43.4 µg/mL (≈ 175 µM).
On to `Cn1cc(NC(=O)c2ccc(OCC3CCOCC3)nc2)cn1`, for which the MDR1-MDCK efflux ratio came out at 2.95; the intrinsic clearance, human liver microsomes is not above 4.74 mL/min/kg; the intrinsic clearance, rat liver microsomes turned out to be 41.2 mL/min/kg; the aqueous solubility is 50.1 µg/mL (≈ 158 µM).
